Source: paper PMC4818757, “Small molecule inhibitors of the Dishevelled‐CXXC5 interaction are new drug candidates for bone anabolic osteoporosis therapy” (EMBO Molecular Medicine, 2016)

Assays:
Dvl PDZ domain = target: T1, Dvl PDZ domain (Homo sapiens, UniProt O14640); experiment: Fluorescence quenching of Dvl PDZ domain; conditions: read-out: binding affinity between Dvl PDZ domain and compound
T1 construct: plasmid DNA encoding Dvl-1247- 341 (the Dvl PDZ domain); His-tag (TEV-cleavable) (cleaved yes); made in house; host or cells: E. coli BL21 (DE3)
T1 sequence (O14640 247-341 limits assumed): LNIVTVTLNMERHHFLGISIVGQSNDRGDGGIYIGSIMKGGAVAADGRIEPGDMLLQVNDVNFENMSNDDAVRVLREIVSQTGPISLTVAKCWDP
Protocol: Figure 4 Binding of KY‐02327, a KY‐02061 analog, on Dvl PDZ domain • A The chemical structure of KY‐02327. • B A competition curve for the Dvl–CXXC5 interaction by KY‐02327. • C Fluorescence quenching plot of Dvl PDZ domain upon addition of different amounts of KY‐02327. From top to bottom, final molar ratio between Dvl PDZ and KY‐02327 was 1:0, 1:1, 1:2, 1:3, 1:4, 1:5, 1:6, 1:7, 1:8, 1:9, 1:10, 1:15, 1:20, and 1:25, respectively. • D–F ^1H‐^15N‐HSQC analyses were performed to analyze the interaction of ^15N‐labeled Dvl PDZ domain with KY‐02327. […] Plot of chemical shift changes (Δδ) as a function of residue number in molecular ratio 1:20 (E, a red‐colored line indicates the line for Δδ = 0.05). The residues with Δδ greater than 0.05 are visualized as a stick model on the ribbon representation of the Dvl PDZ domain structure (F). • G Molecular docking of KY‐02061 or KY‐02327 to Dvl PDZ domain was analyzed by in silico experiments. The superimposed structure of KY‐02061 (yellow) and KY‐02327 (cyan) on the surface of Dvl PDZ domain (gray) was visualized.

[1] = system: normal or cancer cells derived from various tissues; experiment: MTT assay on various normal or cancer cells; format: cell-based
Protocol: (amino acids 1-34) was subcutaneously injected into the Sham-operated
(Sham) or ovariectomized (OVX) mice on 5 sequential days per week for 4 weeks [n =4]. During treatment, the weights of each mouse were measured and recorded every week (A). After 4 weeks treatment, mice were scarified and their organs were subjected to histological analyses.
Hematoxylin and Eosin staining of liver (B), lung (C), and spleen (D).
E Various cells were treated with DMSO or 0.1, 1, or 10 µ M KY-02327.
After 48 hours, cells were subjected to an MTT assay (OD590 reading) to measure cell viability. NSC: neural stem cell, OB: osteoblast, MSC: mesenchymal stem cell. The data are the mean ± s.d. (error bars). [n =3]

[2] = system: ovariectomized (OVX) mice; experiment: OVX-induced osteoporosis mouse model; format: in vivo
Protocol: Figure 6 Effects of KY‐02327 on OVX‐induced osteoporosis model mice • A–H Vehicle or 20 mg of KY‐02327 per kg of animal body weight (mpk) was orally administered or 0.06 mpk of the N‐terminal fragment of PTH (amino acids 1‐34) was subcutaneously injected into the Sham‐operated (Sham) or ovariectomized (OVX) mice on 5 sequential days per week for 4 weeks (n = 4). After calcein injection, the prepared femoral sections of the OVX mice were examined under fluorescence microscope to visualize integrated calcein (A, green, arrows). Nuclei were counterstained with DAPI (A, blue). Scale bars, 100 μm. Osteoblast numbers (B) and calcein double‐labeled surfaces (C) were measured in the femoral sections. The mouse femurs were analyzed using micro‐CT, and BMD (D) and BV/TV (E) were calculated from the micro‐CT data. The three‐dimensional images of femoral trabecular bone were reconstructed (F), and trabecular number (G) and trabecular separation (H) were calculated. Data Information: The data are the mean ± s.d. (error bars). Significance was assessed using Kruskal–Wallis test.
This animal study was approved by the Institutional Review Board of Severance Hospital, Yonsei University College of Medicine. The mice were housed in filter‐topped shoebox cages with a computerized environmental control system (MJ LTD, Seoul, Korea). The care and treatment of experimental animals were performed in accordance with institutional guidelines. The room temperature was maintained at 26.5°C with a relative humidity of approximately 40–70%. The mice were given a standard maintenance diet from Dae Han Bio Link (Daejeon, Korea). For OVX mouse experiments, the surgeries were performed with 8‐week‐old female BL6 mice under anesthesia with avertin (2,2,2‐tribromoethanol; Worthington Biochemical, Freehold, NJ) as described previously (Zahoor et al, 2014). After removing the hair, dorsal incisions were made into the dermal layers above both sides of the ovaries using dissection scissors. The connection between the fallopian tube and the uterine horn was cut, and the ovary was removed. The incision was then sutured with 3 single catgut stitches. Sham mice were used as controls. After 4 weeks, the OVX group was divided into three groups for oral administration of vehicle (saline containing 10% Tween‐60) or 20 mg of KY‐02327 per kg of animal body weight (mpk) of KY‐02327, or for subcutaneous injection of 0.06 mpk of N‐terminal fragment of PTH (amino acids 1–34), which were administered for 5 sequential days per week for 4 weeks. The animals were sacrificed, and the organs were harvested for analysis. For the calcein double‐labeling experiment (Pall et al, 1987), calcein (10 mpk in 2% sodium hydrocarbonate, pH 7.4) was injected twice, on the last day of the 2nd and 3rd week. All the mice were randomly assigned to each groups, and the investigators were blinded to the group allocation during the treatments and experiments.
The mouse femurs were scanned using a micro‐CT system (Skyscan 1072; Skyscan, Aartselaar, Belgium). The scanned image data were reconstructed to create 3D images and analyzed using the CT‐Analyzing Program (Skyscan). For femoral trabecular bone analysis, the femurs were scanned with a voxel size of 10 μm, beginning at the end of the growth plate and extending proximally along the diaphysis, and 80 continuous slices (beginning at 0.1 mm from the most proximal aspect of the growth plate in which both condyles were no longer visible) were selected for analysis.
The femurs of OVX mice and the calvariae of 4‐day‐old mice were fixed in 4% paraformaldehyde in PBS. The bones were then decalcified in 10 mM EDTA and embedded in paraffin. Five‐micrometer tissue sections were deparaffinized in 100% xylene followed by re‐hydration with sequential 100% to 50% ethanol washes. The sections were stained with hematoxylin and eosin (H&E), and light micrographs were captured using a SMZ645 Nikon microscope (Nikon, Tokyo, Japan). […]

[3] = KY‐02327 20 mpk oral, PTH 0.06 mpk subcutaneous, 4 weeks
[4] = KY‐02327 20 mpk oral, PTH 0.06 mpk subcutaneous, 5 days per week for 4 weeks

`CCOC(=O)c1cc2cc(O)ccc2n1CC(=O)NCCN1CCCCC1` [KY‐02327] was tested, and the Kd (Dvl PDZ domain) was 8.31 ± 0.8 µM, the “toxic effect on cell viability (MTT)” value ([1]; 0.1, 1, or 10 M, 48 hours) was “no significant toxic effect” and the “proliferation of MC3T3E1 cells (MTT)” value ([1]; MC3T3E1) was “did not significantly affect”. For the same compound, the “proliferation of murine primary osteoblasts (OB)” value ([1]; OB) was “unaffected”, the “histology of livers, lungs, spleens” value ([2]; 4 weeks treatment, H&E) was “No histological abnormalities” and the “weight of treated mice” value ([2]; 4‐week treatment) was “did not change significantly”. The “destroyed trabecular bones (3D micro-CT images)” value [2, 3] was “rescued”, the “mineral contents of the bone (BMD), femur, micro‐CT” value [2, 3] was “significantly increased” and the trabecular bone number [2, 3] was “increase”. The trabecular separation [2, 3] was “decrease”, the “volume of bone (BV/TV)” value ([2]; KY‐02327 20 mpk oral, PTH 0.06 mpk subcutaneous, 4 weeks, vs vehicle) was “increased” and the “calcein double‐labeled surface” value [2, 4] was “increased”. The “new bone formation (calcein-labeled) in femur” value [2, 4] was “recovered”, the number of osteoblasts [2, 4] was “increased” and the “calcein double-labelled surface, fold increase” value ([2]; OVX mice, 20 mpk oral) was “approximately 2 fold”. For the same compound, the “number of osteoblasts, fold increase” value ([2]; OVX mice, 20 mpk oral) was “approximately 2 fold”.
